Earlier results in patent US20220364053A1, “HUMAN CELLULAR MODEL FOR INVESTIGATING CORTICO-STRIATAL-MIDBRAIN NEURAL PATHWAYS” (The Board of Trustees of the Leland Stanford Junior …, priority 2019, published 2022).
One block for each molecule: values may come before it.

Key:
[1] = molecular target: element-binding protein (CBP) (Homo sapiens, UniProt Q92793); conditions: read-out: IC50, binds to element-binding protein (CBP)
[2] = tested on: Wnt-stimulated cellular responses
[3] = tested on: Wnt processing and secretion; conditions: cell-free assay; read-out: IC50, inhibitor of Wnt processing and secretion
Porcn = molecular target: T1, Porcn (Homo sapiens, UniProt Q9H237); conditions: read-out: EC50, Porcn inhibitor
T1 sequence (Q9H237 1-461): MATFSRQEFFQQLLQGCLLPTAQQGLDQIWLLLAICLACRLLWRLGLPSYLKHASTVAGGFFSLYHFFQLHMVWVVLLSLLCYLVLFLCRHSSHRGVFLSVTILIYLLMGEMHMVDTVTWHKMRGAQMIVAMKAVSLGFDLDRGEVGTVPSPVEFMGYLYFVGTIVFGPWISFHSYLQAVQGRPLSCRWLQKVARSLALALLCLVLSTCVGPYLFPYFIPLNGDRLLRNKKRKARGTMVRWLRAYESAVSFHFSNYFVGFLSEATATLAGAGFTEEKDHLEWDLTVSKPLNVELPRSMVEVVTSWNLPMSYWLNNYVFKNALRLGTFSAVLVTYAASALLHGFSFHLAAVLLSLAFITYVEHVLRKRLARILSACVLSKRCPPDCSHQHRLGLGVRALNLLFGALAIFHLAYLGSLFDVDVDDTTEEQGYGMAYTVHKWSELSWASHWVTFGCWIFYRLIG

Wnt signaling = conditions: TM3 cells; read-out: IC50, inhibits Wnt signaling
Smo heptahelical domain = Smo heptahelical domain (Homo sapiens, UniProt Q99835)
TNKS2 = molecular target: T2, TNKS2 (Homo sapiens, UniProt Q9H2K2)
T2 sequence (Q9H2K2 1-1166): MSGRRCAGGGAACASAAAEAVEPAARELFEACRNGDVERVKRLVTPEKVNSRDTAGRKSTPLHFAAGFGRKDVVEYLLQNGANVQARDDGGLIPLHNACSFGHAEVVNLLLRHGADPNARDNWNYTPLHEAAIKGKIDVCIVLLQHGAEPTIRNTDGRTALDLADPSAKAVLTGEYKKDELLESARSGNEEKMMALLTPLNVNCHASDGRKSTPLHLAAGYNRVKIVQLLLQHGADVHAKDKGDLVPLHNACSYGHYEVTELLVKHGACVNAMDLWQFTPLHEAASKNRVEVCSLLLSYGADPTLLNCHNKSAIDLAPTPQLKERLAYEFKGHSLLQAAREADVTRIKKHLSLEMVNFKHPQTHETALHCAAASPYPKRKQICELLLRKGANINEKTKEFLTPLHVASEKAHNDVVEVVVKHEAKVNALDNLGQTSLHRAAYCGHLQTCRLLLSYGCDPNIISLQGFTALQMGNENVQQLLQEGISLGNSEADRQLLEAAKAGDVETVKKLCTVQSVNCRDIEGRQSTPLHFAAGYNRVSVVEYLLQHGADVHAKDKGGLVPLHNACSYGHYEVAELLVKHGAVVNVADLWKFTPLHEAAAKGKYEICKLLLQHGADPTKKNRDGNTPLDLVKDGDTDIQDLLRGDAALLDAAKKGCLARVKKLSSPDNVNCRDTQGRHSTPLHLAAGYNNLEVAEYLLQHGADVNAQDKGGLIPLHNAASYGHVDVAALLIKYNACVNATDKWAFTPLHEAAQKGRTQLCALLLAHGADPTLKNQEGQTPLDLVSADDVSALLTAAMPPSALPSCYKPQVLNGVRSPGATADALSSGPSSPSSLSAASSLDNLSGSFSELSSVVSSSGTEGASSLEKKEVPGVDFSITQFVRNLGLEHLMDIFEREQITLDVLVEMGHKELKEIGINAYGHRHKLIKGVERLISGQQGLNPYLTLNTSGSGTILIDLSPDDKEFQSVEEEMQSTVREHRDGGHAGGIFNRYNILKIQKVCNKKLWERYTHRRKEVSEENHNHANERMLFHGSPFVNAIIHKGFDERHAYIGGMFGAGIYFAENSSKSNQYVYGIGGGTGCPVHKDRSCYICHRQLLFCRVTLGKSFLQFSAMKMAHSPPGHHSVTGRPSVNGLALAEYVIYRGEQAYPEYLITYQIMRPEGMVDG

[4] = molecular target: Wnt3A-mediated activation of a multimerized TCF-binding site driving luciferase; conditions: HEK293 cells

Chain of Smo heptahelical domain (Q99835 28-787): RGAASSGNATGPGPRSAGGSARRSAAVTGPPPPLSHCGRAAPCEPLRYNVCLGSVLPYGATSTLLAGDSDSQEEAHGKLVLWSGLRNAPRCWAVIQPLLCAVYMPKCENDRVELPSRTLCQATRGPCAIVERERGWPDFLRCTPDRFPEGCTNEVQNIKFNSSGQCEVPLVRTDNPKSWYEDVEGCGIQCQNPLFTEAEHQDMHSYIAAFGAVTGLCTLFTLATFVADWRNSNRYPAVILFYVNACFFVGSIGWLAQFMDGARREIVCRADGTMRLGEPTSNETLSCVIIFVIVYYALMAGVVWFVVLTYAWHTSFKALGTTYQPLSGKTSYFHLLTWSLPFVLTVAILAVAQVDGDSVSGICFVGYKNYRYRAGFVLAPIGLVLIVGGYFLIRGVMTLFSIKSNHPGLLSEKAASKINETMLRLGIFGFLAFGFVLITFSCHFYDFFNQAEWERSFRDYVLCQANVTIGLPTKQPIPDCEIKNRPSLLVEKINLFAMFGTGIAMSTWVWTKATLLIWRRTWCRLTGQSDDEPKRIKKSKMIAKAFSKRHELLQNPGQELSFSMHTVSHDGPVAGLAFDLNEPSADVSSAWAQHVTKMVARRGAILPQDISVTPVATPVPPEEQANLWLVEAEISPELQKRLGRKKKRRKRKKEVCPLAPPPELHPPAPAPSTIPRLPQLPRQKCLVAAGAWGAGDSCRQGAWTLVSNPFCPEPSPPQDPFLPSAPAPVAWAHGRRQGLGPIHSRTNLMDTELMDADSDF
Chain of element-binding protein (CBP) (Q92793 whole entry): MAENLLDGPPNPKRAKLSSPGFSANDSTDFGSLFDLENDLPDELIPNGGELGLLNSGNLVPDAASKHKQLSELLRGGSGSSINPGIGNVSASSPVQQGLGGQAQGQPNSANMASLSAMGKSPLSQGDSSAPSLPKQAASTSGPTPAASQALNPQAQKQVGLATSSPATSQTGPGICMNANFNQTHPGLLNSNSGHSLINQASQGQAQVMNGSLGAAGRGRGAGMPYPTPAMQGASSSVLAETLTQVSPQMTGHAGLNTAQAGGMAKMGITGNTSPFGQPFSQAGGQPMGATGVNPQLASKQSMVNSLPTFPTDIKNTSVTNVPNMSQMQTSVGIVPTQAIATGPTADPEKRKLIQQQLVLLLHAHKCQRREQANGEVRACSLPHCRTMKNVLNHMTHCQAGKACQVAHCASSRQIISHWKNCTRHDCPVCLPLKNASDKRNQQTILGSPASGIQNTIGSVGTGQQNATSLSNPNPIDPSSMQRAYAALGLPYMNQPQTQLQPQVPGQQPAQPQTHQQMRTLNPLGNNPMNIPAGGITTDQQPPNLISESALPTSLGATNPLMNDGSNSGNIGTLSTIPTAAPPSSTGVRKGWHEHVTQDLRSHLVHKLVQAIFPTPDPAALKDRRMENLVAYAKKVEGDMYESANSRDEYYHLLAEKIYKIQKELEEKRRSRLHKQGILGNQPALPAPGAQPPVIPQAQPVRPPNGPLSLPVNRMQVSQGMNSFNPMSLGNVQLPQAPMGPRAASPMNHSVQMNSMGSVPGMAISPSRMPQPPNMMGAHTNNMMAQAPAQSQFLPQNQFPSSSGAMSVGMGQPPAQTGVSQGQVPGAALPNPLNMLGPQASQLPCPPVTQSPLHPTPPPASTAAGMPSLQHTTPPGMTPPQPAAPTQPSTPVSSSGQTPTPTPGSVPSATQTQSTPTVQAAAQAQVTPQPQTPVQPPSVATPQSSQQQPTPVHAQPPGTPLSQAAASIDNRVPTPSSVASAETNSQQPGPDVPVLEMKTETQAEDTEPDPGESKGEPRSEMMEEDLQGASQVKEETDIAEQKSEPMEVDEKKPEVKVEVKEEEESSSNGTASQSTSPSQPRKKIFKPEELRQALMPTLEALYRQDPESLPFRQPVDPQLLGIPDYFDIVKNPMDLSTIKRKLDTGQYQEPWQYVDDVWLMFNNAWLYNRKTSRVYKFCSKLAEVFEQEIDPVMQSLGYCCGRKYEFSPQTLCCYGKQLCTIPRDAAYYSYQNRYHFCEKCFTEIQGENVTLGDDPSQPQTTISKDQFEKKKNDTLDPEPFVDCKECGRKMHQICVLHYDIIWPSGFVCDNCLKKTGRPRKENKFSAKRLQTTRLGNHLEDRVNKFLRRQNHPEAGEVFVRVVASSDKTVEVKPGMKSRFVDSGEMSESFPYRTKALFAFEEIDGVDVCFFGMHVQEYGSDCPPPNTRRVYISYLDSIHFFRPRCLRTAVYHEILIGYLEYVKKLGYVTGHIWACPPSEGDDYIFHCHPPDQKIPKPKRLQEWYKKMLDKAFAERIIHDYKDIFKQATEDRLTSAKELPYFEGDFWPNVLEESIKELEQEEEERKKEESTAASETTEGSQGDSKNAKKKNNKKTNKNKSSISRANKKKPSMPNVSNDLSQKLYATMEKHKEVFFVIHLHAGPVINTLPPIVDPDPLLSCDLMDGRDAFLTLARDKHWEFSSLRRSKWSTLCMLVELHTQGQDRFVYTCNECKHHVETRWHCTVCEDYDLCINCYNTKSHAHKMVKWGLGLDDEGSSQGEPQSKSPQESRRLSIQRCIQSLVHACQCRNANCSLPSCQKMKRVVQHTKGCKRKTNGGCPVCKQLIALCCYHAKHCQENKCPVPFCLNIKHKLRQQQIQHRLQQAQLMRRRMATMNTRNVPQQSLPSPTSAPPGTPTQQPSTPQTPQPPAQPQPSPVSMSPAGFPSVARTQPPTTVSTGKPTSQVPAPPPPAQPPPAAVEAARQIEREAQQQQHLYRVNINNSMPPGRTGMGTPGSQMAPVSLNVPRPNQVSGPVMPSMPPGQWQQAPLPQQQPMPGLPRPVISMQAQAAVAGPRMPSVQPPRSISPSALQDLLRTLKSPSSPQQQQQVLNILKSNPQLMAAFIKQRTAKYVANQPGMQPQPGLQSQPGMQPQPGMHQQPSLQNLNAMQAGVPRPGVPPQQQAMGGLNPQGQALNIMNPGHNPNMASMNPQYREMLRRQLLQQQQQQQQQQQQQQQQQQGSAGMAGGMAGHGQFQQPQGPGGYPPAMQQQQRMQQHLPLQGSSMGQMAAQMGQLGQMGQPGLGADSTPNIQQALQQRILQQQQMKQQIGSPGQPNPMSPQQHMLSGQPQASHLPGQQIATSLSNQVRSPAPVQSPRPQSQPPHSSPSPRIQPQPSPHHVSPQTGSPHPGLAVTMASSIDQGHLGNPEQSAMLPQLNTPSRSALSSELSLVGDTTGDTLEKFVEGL

SMILES: O=C1[C@H](Cc2ccc(O)cc2)N2C(=O)CCN(C(=O)NCc3ccccc3)[C@H]2CN1Cc1cccc2ccccc12 [ICG-001]
- IC50 [1]: 3000 nM

SMILES: Cc1ccc2nc(NC(=O)CSc3nc4c(c(=O)n3-c3ccccc3)SCC4)sc2c1 [IWP-2]
- effect against Wnt-stimulated cellular responses [2]: no effect
- IC50 [3]: 27 nM

SMILES: O=C(CSc1nc2c(c(=O)n1-c1ccccc1)SCC2)Nc1ccc(-c2ccccc2)cn1 [IWP-L6]
- EC50 (Porcn): 0.5 nM

SMILES: Cc1cc(-c2ncc(CC(=O)Nc3ccc(-c4cnccn4)cn3)cc2C)ccn1 [LGK-974]
- IC50 (Wnt signaling): 0.4 nM

Other lines, results leading:

- Kd (Smo heptahelical domain): 59 nM
SMILES: CNC1CCC(N(Cc2cccc(-c3ccncc3)c2)C(=O)c2sc3ccccc3c2Cl)CC1 (centres unmarked) [SAG]

- IC50 (TNKS2): 15 nM
SMILES: COc1ccc(-n2c(SCCCN3C(=O)c4cccc5cccc(c45)C3=O)nnc2-c2ccncc2)cc1 [WIKI4]

- IC50 [4]: 74000 nM
SMILES: Cc1cc(-c2ccc(CC(=O)Nc3ccc(-c4cccnc4)cc3)cc2)ccn1 [Wnt-C59]
